“Also recorded” adds a separate entry of the source.
Assays:
[1] = system: membrane chloride conductance (GCl), rat diaphragm; experiment: Inhibition of membrane chloride conductance; format: cell-based; details: for Relative potency: potency of 1 for a compound having a Ki of 1 x 10^-2 M; for Reduction of GCl: 10-s M (so in the source)
[2] = system: residual conductance in chloride-free solution (largely attributable to K+), rat diaphragm; experiment: Residual conductance in chloride-free solution; format: cell-based
[3] = system: red blood cell (RBC) surface charge; experiment: Electrophoretic mobility of erythrocytes; set-up: species or system human; details: concentrations 0.1 to 100 times the Ki
[4] = system: membrane anion permeability, rat diaphragm; experiment: Anion permeability sequence, bi-ionic potential shift measurements; format: cell-based
rat diaphragm fibers = experiment: Resting membrane potential of diaphragm fibers; format: cell-based; details: fibers exposed to 2 x 10-s M 9-AC (so in the source); SD
[5] = system: Cl- current, rat diaphragm fibers; experiment: Current-voltage relationships of diaphragm fibers; format: cell-based; details: 2 x 10^-5 M 9-AC, 20 ms after onset of hyperpolarizing pulses, all voltage levels
[6] = system: membrane anion conductances (GCl, GBr, GNO3, GI), rat diaphragm; experiment: Anion conductance sequence in rat diaphragm; format: cell-based
[7] = system: membrane resistance, rat diaphragm; experiment: Membrane resistance of diaphragm in vitro during perfusion and wash; format: cell-based

| Molecule | Relative potency [1] | Effects on residual conductances (GK) [2] | further results |
| --- | --- | --- | --- |
| 3,~-Dichloro-2-amino BA | 76 | + |  |
| O=C(O)c1c(Cl)c(Cl)cc(Cl)c1Cl [2,3,5,6-Tetrachloro BA] | 47 | + |  |
| Cc1cc(C)c(C)c(C(=O)O)c1C [2,3,5,6-Tetramethyl BA] | 16.7 | 0 |  |
| Cc1c(C)c(C(=O)O)c(C)c(C)c1C(=O)O [2,3,5,6-Tetramethyl-4-COOH-BA] | < 0.1 | 0 | Effect on GCl (in words) ([1]; rat diaphragm): without detectable effect on Gel |
| O=C(O)c1c(Cl)ccc(Cl)c1Cl [2,3,6-Trichloro BA] | 10.5 | 0 |  |
| Cc1cc(C)c(C(=O)O)cc1C [2,4,5-Trimethyl benzoic acid] | 152 | + | Red blood cell (RBC) electrophoretic mobility [3]: No change; Permeability sequence inversion ([4]; increasing analog concentration): same sequence inversions were observed |
| Cc1cc(C)c(C(=O)O)c(C)c1 [2,4,6-Trimethyl BA] | 2.5 | 0 |  |
| O=C(O)COc1ccc(Cl)cc1Cl [2,4-Dichloro phenoxyacetic acid] | 5.0 |  |  |
| Cc1ccc(C(=O)O)c(C)c1 [2,4-Dimethyl BA] | 6.2 | + |  |
| O=C(O)c1cc(Cl)ccc1Cl [2,5-Dichloro BA] | 33.3 | 0 |  |
| Cc1ccc(C)c(C(=O)O)c1 [2,5-Dimethyl BA] | 32 | 0 |  |
| Cc1ccc(C)c(S(=O)(=O)O)c1 [2,5-Dimethyl benzene SOsH] | < 0.3 | 0 |  |
| O=C(O)c1c(Cl)cccc1Cl [2,6-Dichloro BA] | 5.0 | 0 |  |
| O=C(O)c1ccc(Cl)c(Cl)c1 [3,4-Dichloro BA] | 38 | 0 |  |
| Cc1ccc(C(=O)O)cc1C [3,4-Dimethyl BA] | 5.0 | 0 |  |
| O=C(O)c1cc(Cl)cc(Cl)c1 [3,5-Dichloro BA] | 40 | 0 |  |
| Cc1cc(C)cc(C(=O)O)c1 [3,5-Dimethyl BA] | 6.7 | 0 |  |
| Cc1cc(C(=O)O)cc(C)c1N [3,5-Dimethyl-4-amino BA] | < 0.3 |  |  |
| Cc1cc(C(=O)O)cc(C)c1O [3,5-Dimethyl-4-hydroxy BA] | < 0.1 | 0 |  |
| Cc1cc(C(=O)O)cc(C)c1[N+](=O)[O-] [3,5-Dimethyl-4-nitro BA] | 3.6 | 0 |  |
| O=C(O)c1c(Cl)ccc(Cl)c1[N+](=O)[O-] [3,6-Dichloro-2-nitro BA] | 6.0 | 0 |  |
| O=C(O)c1cc(Cl)c(Cl)cc1C(=O)O [4,5-Dichioro-2-COOH BA] | 0.63 | 0 |  |
| O=C(O)c1c2ccccc2cc2ccccc12 [9-AC, anthracene-9-COOH] | 909 | 0 | Reduction of GCl ([1]; depolarizing pulses): 54%; Reduction of GCl ([1]; hyperpolarizing pulses): 58%; Percent reduction in observed GCl at varied external Ca2+ ([1]; 10^-5 M 9-AC, external [Ca2+] 2 mM, 10 mM and 20 mM): the same; Average resting membrane potential (RMP) (rat diaphragm fibers): 68.3 ± 3.8 mV; Red blood cell (RBC) electrophoretic mobility [3]: No change; Early I-V relationships relative to control values [5]: about 30 % of control; Anion conductance sequence ([6]; 8 x 10^-6 M 9-AC (table prints 8 x 10-e M)): CI>I>NO3>Br; Change of GI ([6]; 9-AC at 5 x 10^-5 M): appeared increased relative to control values; Reduction of GCl ([6]; 9-AC at 5 x 10^-5 M): > 90%; Change of GBr ([6]; 9-AC at 8 x 10^-6 M): changed little; Change of GI ([6]; 9-AC at 8 x 10^-6 M): appeared to increase; Reduction of GCl ([6]; 9-AC at 8 x 10^-6 M): approximately 50%; Effect on GI at concentrations reducing GCl by >90% ([6]; 9-AC concentrations reducing GCl by more than 90 percent): slight augmentation of G(I); also recorded: slight augmentation of GI; Relative permeability I- vs Cl- ([4]; 5 x 10^-5 M 9-AC, 30 min): more permeable to I- than to el-; Time for increase in membrane resistance to reach new steady value ([7]; 10^-5 M 9-AC in Ringer's): ≤ 10 min; Membrane resistance in chloride-free Ringer's ([7]; methylsulfate-substituted chloride-free Ringer's, same concentration (10^-5 M)): unaffected; Time for membrane resistance to return to near control levels ([7]; reperfusion with normal Ringer's after 10^-5 M 9-AC): 30 to 60 min |
| O=C(O)c1ccccc1 [Benzoic acid (BA), Benzoic acid] |  | 0 |  |
| O=C(O)c1c(Cl)c(Cl)c(Cl)c(Cl)c1Cl [Pentachloro BA] | 125 | + |  |

Source: publication PMC2215335 (The Journal of General Physiology, 1977)
